Key:
Type in all cases: physicochemical
[1] = system: dead bacterial cells of an ice nucleation active bacterium (Erwinia ananas); test: Supercooling activity (ice nucleus formation inhibitory activity), 2-μL droplets on cooled copper plate, Erwinia ananas as ice nucleus substance; details: for activity that allows water to be supercooled: 2 mg/mL Erwinia ananas, substance 0.01 to 3 mg/mL (FIG. 6); for freezing temperature (INT50): 0.1 mass % substance, 2 mg/mL dead E. ananas cells, cooling 0.2° C./min, temperature at which 50% of droplets froze
Method: (§1) In the present invention, a supercooling activity (also referred to as ice nucleus formation inhibitory activity) was measured by the following method. That is, an object to be measured was mixed at […] in a buffer containing an ice nucleus substance to prepare a solution, and many 2-μL liquid droplets of the solution were placed on a copper plate where the temperature could be controlled. The copper plate was cooled at 0.2° C./min, and the number of frozen liquid droplets was visually observed. The temperature at which 50% of the liquid droplets were frozen was defined as a freezing temperature, and a difference between the freezing temperature of the solution including the object to be measured and the ice nucleus substance and the freezing temperature of a solution including only the ice nucleus substance and the buffer (control) (INT50 (° C.)) was defined as a supercooling activity. As the buffer, a 50 mM potassium phosphate buffer (pH 7.0) was used.
The water suspension of the crude extract was centrifuged at 20° C. and 14,000 G, and the supernatant was collected. 300 mL of the supernatant and 600 mL of ethyl acetate were mixed, and the mixture was divided into a water-soluble part and an ethyl acetate-soluble part by a separating funnel, followed by drying. Supercooling activities of the parts were measured by the above-mentioned method. Dead bacterial cells of an ice nucleation active bacterium (Erwinia ananas) (manufactured by Wako Pure Chemical Industries, Ltd.) were used as an ice nucleus substance.
The fractions K to S obtained above were analyzed by high-performance liquid chromatography (column: PC hydrophilic interaction chromatography column (HILIC), solvent: acetonitrile:water=9:1, flow rate: 1 mL/min, detector: UV 280 nm). […] The three substances are known substances, and their structures were confirmed by ^1H-NMR. FIGS. 3 to 5 show the resultant ^1H-NMR charts. FIG. 6 show the supercooling activity of water containing each of the three substances with 2 mg/mL Erwinia ananas serving as an ice nucleus-forming substance, together with control data in the case of containing none of the three substances.
A substance to be measured (1 mg/mL) was mixed in a buffer containing any one of the ice nucleus substances and ultrapure water (MilliQ Water), and the supercooling activities were measured by the above-mentioned method. A difference between the freezing temperature of the solution containing the substance to be measured and the ice nucleus substance and the freezing temperature of the solution including only the ice nucleus substance, and a difference between the freezing temperature of pure water having dissolved therein the substance to be measured and the freezing temperature of only pure water were determined as supercooling activities (ice nucleus formation inhibitory activities) (see FIGS. 8 to 11 and Tables 1 to 4).

[2] = Supercooling activity, droplets on cooled copper plate, silver iodide as ice nucleus substance; details: for supercooling activity: against an ice nucleus substance AgI, concentration not given; for freezing temperature (INT50): 0.1 mass % substance, 10 mM AgI, cooling 0.2° C./min
Method: as §1
In Examples 4 to 8 below, 10 mM silver iodide (AgI) (manufactured by NACALAI TESQUE, INC.), 2 mg/mL dead bacterial cells of an ice nucleation active bacterium Erwinia ananas (manufactured by Wako Pure Chemical Industries, Ltd.), 2 mg/mL dead bacterial cells of an ice nucleation active bacterium Xanthomonas campestris (manufactured by Wako Pure Chemical Industries, Ltd.), and 120 mM phloroglucinol (manufactured by TOKYO CHEMICAL […] CO., LTD.) were used as ice nucleus substances, and ultrapure water obtained by passing water through an ultrapure water device manufactured by Millipore Corporation was used (MilliQ Water). A substance to be measured (1 mg/mL) was mixed in a buffer containing any one of the ice nucleus substances and ultrapure water (MilliQ Water), and the supercooling activities were measured by the above-mentioned method. A difference between the freezing temperature of the solution containing the substance to be measured and the ice nucleus substance and the freezing temperature of the solution including only the ice nucleus substance, and a difference between the freezing temperature of pure water having dissolved therein the substance to be measured and the freezing temperature of only pure water were determined as supercooling activities (ice nucleus formation inhibitory activities) (see FIGS. 8 to 11 and Tables 1 to 4).

[3] = system: dead bacterial cells of an ice nucleation active bacterium Xanthomonas campestris; test: Supercooling activity, droplets on cooled copper plate, Xanthomonas campestris as ice nucleus substance; details: 0.1 mass % substance; 2 mg/mL dead X. campestris cells; cooling 0.2° C./min
Method: as §1, with “used. […]” for “used.”

[4] = Supercooling activity, droplets on cooled copper plate, ultrapure water without ice nucleus substance; details: 0.1 mass % substance; ultrapure water (MilliQ Water); cooling 0.2° C./min
Method: as §1
(§2) In Examples 4 to 8 below, 10 mM silver iodide (AgI) (manufactured by NACALAI TESQUE, INC.), 2 mg/mL dead bacterial cells of an ice nucleation active bacterium Erwinia ananas (manufactured by Wako Pure Chemical Industries, Ltd.), 2 mg/mL dead bacterial cells of an ice nucleation active bacterium Xanthomonas campestris (manufactured by Wako Pure Chemical Industries, Ltd.), and 120 mM phloroglucinol (manufactured by TOKYO CHEMICAL […] CO., LTD.) were used as ice nucleus substances, and ultrapure water obtained by passing water through an ultrapure water device manufactured by Millipore Corporation was used (MilliQ Water). A substance to be measured (1 mg/mL) was mixed in a buffer containing any one of the ice nucleus substances and ultrapure water (MilliQ Water), and the supercooling activities were measured by the above-mentioned method. […]

[5] = Supercooling activity, droplets on cooled copper plate, phloroglucinol as ice nucleus substance; details: 0.1 mass % substance; 120 mM phloroglucinol; cooling 0.2° C./min
Method: as §1, §2

2,3,6-tri-O-galloyl-α,β-D-hamamelose
activity that allows water to be supercooled [1]: about 5 °C

O=C(OC[C@H]1O[C@@H](OC(=O)c2cc(O)c(O)c(O)c2)[C@H](OC(=O)c2cc(O)c(O)c(O)c2)[C@@H](OC(=O)c2cc(O)c(O)c(O)c2)[C@@H]1O)c1cc(O)c(O)c(O)c1 [1,2,3,6-tetra-O-galloyl-β-D-glucose]
activity that allows water to be supercooled [1]: about 5 °C

O=C(OC[C@H]1O[C@@H](OC(=O)c2cc(O)c(O)c(O)c2)[C@H](OC(=O)c2cc(O)c(O)c(O)c2)[C@@H](O)[C@@H]1O)c1cc(O)c(O)c(O)c1 [1,2,6-tri-O-galloyl-β-D-glucose]
activity that allows water to be supercooled [1]: about 5 °C

O=C(O)/C=C/c1ccc(O)c(O)c1 [CaA, caffeic acid]
supercooling activity [2]: −1.9 °C

O=C(/C=C/c1ccc(O)c(O)c1)O[C@@H]1C[C@](O)(C(=O)O)C[C@@H](O)[C@H]1O [ChA, chlorogenic acid]
supercooling activity [2]: −0.6 °C

O=c1oc2c(O)c(O)cc3c(=O)oc4c(O)c(O)cc1c4c23 [EA, ellagic acid]
supercooling activity [2]: −0.3 °C

O=C(O[C@@H]1Cc2c(O)cc(O)cc2O[C@@H]1c1ccc(O)c(O)c1)c1cc(O)c(O)c(O)c1 [ECG, epicatechin gallate]
freezing temperature (INT50) [2]: −7.8 °C
freezing temperature (INT50) [1]: −8.4 °C
freezing temperature (INT50) [3]: −8.7 °C
freezing temperature (INT50) [4]: −18.7 °C
freezing temperature (INT50) [5]: −9.6 °C

Oc1cc(O)c2c(c1)O[C@H](c1cc(O)c(O)c(O)c1)[C@H](O)C2 [EGC, epigallocatechin]
freezing temperature (INT50) [2]: −6.9 °C
freezing temperature (INT50) [1]: −5.7 °C
freezing temperature (INT50) [4]: −15.8 °C
freezing temperature (INT50) [5]: −8.8 °C

O=C(O[C@@H]1Cc2c(O)cc(O)cc2O[C@@H]1c1cc(O)c(O)c(O)c1)c1cc(O)c(O)c(O)c1 [EGCG, epigallocatechin gallate]
freezing temperature (INT50) [2]: −6.9 °C
freezing temperature (INT50) [1]: −8.3 °C
freezing temperature (INT50) [3]: −8.9 °C
freezing temperature (INT50) [4]: −20.0 °C
freezing temperature (INT50) [5]: −8.4 °C

O=C(O)c1cc(O)c(O)c(O)c1 [GA, gallic acid]
supercooling activity [2]: −1.2 °C

COC(=O)c1cc(O)c(O)c(O)c1 [MG, methyl gallate]
supercooling activity [2]: −3.3 °C
